Key:
Assay in all cases: MTSEA thiol modification rate (SCAM) from ACh-evoked currents in oocytes
Type in all cases: cell-based, chick
Details in all cases: 10 mM Ba^2+
[1] = molecular target: α7 AChR N^170C mutant (C^115A/L^247T background) (Gallus gallus, UniProt P22770, C138A/L270T/N193C)
Protocol: (§1) ACh-evoked current amplitudes decreased following brief, repeated exposure to a limiting concentration of MTSEA (5 μM, 15 seconds). To ensure that the modification reactions were complete, all rate measurements included a final prolonged application of ~100-fold higher concentrations of MTSEA (Fig. 3A and 3B, right). Currents measured following this application represent the endpoint of the reaction between MTSEA and receptors. When the same protocol included Ba^2+ pretreatment and co-application with MTSEA (see Methods), the decreases in current amplitudes were slowed but the same endpoint was obtained (Fig. 3B). Normalized current amplitudes were plotted as a function of the cumulative time of exposure to MTSEA, and pseudo first-order rates were extracted from the single-exponential fits (Fig. 3C).
(§2) Figure 3 Barium slows the rate of MTSEA modification at M^37C. Example of experimental paradigm used to assess Ba^2+ effects on modification rates. […] Endpoints of MTSEA modification are determined by prolonged application of 500 μM MTSEA (right). (B) The same protocol, including Ba^2+ pretreatment and co-application with MTSEA. Current traces are truncated in both (A) and (B) between consecutive MTSEA applications; in all cases the currents were allowed to return to baseline prior to the next application of MTSEA ± ACh. (C) Peak current amplitudes from (A) and (B) are normalized and plotted versus total MTSEA exposure time. Data from this single experiment (no error bars) are fitted to a single-exponential decay (solid line) to extract an apparent pseudo first-order rate constant. The pseudo first-order rate constants calculated in this experiment were 0.011 s^-1 and 0.0019 s^-1 for control (A) and +Ba^2+ (B) measurements, respectively. Second-order rate constants are calculated from these values (Figures 4–6; Table 2).
(§3) Oocytes were superfused in normal extracellular solution containing a reduced Ca^2+ concentration (ESLC; 96 mM NaCl, 2 mM KCl, 1 mM MgCl2, 0.1 mM CaCl2, and 10 mM HEPES, pH 7.5). This solution minimized Ca^2+ influx and eliminated Ca^2+-activated chloride currents. Two-electrode voltage clamp was performed with a GeneClamp 500B controlled by pCLAMP8 software (Molecular Devices, Sunnyvale, CA). Electrodes were filled with 3 M KCl contacting Ag-AgCl wires and had resistances of 0.5 to 2.0 MΩ. Currents were recorded at a constant holding potential of -60 mV. Currents were low pass filtered at 50 Hz and sampled at 100 Hz. Agonist dose-response curves were obtained as described previously, and data were fit to the Hill equation using Origin software (Microcal Software, Northampton, MA).
(§4) MTSEA was prepared daily in distilled water and stored on ice. Stock solution was diluted to the appropriate working concentration in ESLC immediately before each application. […] The limiting dose, yielding 20–40% of the maximal MTSEA effect, was identified for each mutant. […] To measure the effect of Ba^2+ on modification rates we pre-applied 10 mM Ba^2+ for 30 seconds prior to co-application of 10 mM Ba^2+ plus MTSEA. This concentration of Ba^2+ is equivalent to an approximate […] for the modulatory effects in both parental and mutant AChRs. Kinetic data were analyzed as described previously; rate data were fit to a single exponential to extract a pseudo-first order rate constant; this was divided by the MTSEA concentration used to determine the second order rate constant for thiol modification.

[2] = molecular target: α7 AChR E^172C mutant (C^115A/L^247T background) (Gallus gallus, UniProt P22770, C138A/E195C/L270T)
Protocol: as §1, §2, §3, §4

[3] = molecular target: α7 AChR M^40C/E^172Q mutant (C^115A/L^247T background) (Gallus gallus, UniProt P22770, C138A/E195Q/L270T/M63C)
Protocol: as §1, §2, §3, §4

[4] = molecular target: α7 AChR M^37C mutant (C^115A/L^247T background) (Gallus gallus, UniProt P22770, C138A/L270T/M60C)
Protocol: as §1, §2, §3, §4

[5] = molecular target: α7 AChR N^52C mutant (C^115A/L^247T background) (Gallus gallus, UniProt P22770, C138A/L270T/N75C)
Protocol: as §1, §2, §3, §4

[6] = molecular target: T1, α7 AChR M^40C mutant (C^115A/L^247T background) (Gallus gallus, UniProt P22770, C138A/L270T/M63C)
T1 construct: expressed in transfected cells; host or cells: Xenopus laevis oocytes injected with cRNA
Protocol: as §1, §2, §3, §4

[7] = molecular target: α7 AChR E^44C mutant (C^115A/L^247T background) (Gallus gallus, UniProt P22770, C138A/E67C/L270T)
Protocol: as §1, §2, §3, §4

In the case of `[Ba+2].[Cl-].[Cl-]` [Ba^2+, BaCl2], the “effect of Ba^2+ on MTSEA modification rate” value (from here on “effect”) [1] was “the same as that measured in MTSEA alone”, the “effect” value [2] was “significant Ba^2+-dependent decreases” and the “effect” value [3] was “significant slowing”. The “effect” value [4] was “significant decreases”, the “effect” value [5] was “no significant effect” and the “effect” value [6] was “significant decreases”. For the same compound, the “effect” value [7] was “significant Ba^2+-dependent decreases”.

From publication PMC2632993, “Conformational changes in α7 acetylcholine receptors underlying allosteric modulation by divalent cations” (BMC Pharmacology, 2009)
